Source: PubChem BioAssay AID2060488 (Molecular Pharmacology Branch, DTP, NCI, 2025)

Tested on: 966289-007-R4-J1-PDC complex spheroid viability
Assay: Anticancer human tumor 966289-007-R4-J1-PDC patient-derived pancreatic adenocarcinoma cell line growth inhibition [GQUAD]
Conditions: for IC50: curve of first compound; for viability, T/C: stronger effect = lower value; active = viability on the fitted dose curve at most 10% of control; inactive = the rest
Outline: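 Tumor cells were grown as complex spheroids with HUVEC endothelial cells and mesenchymal stem cells as stroma. G-quadruplex stabilizers were combined with targeted agents over half-log dilutions from near the clinical Cmax, or from 10 microM.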

[1] = second compound 0.0316 µM, first compound 0.0316 µM
[2] = second compound 0.0316 µM, first compound 0.1 µM
[3] = second compound 0.0316 µM, first compound 0.316 µM
[4] = second compound 0.0316 µM, first compound 1 µM
[5] = second compound 0.0316 µM, first compound 3.16 µM
[6] = second compound 0.0316 µM, first compound 10 µM
[7] = second compound 0.1 µM, first compound 0.0316 µM
[8] = second compound 0.1 µM, first compound 0.1 µM
[9] = second compound 0.1 µM, first compound 0.316 µM
[10] = second compound 0.1 µM, first compound 1 µM
[11] = second compound 0.1 µM, first compound 3.16 µM
[12] = second compound 0.1 µM, first compound 10 µM
[13] = second compound 0.316 µM, first compound 0.0316 µM
[14] = second compound 0.316 µM, first compound 0.1 µM
[15] = second compound 0.316 µM, first compound 0.316 µM
[16] = second compound 0.316 µM, first compound 1 µM
[17] = second compound 0.316 µM, first compound 3.16 µM
[18] = second compound 0.316 µM, first compound 10 µM
[19] = second compound 1 µM, first compound 0.0316 µM
[20] = second compound 1 µM, first compound 0.1 µM
[21] = second compound 1 µM, first compound 0.316 µM
[22] = second compound 1 µM, first compound 1 µM
[23] = second compound 1 µM, first compound 3.16 µM
[24] = second compound 1 µM, first compound 10 µM
[25] = second compound 3.16 µM, first compound 0.0316 µM
[26] = second compound 3.16 µM, first compound 0.1 µM
[27] = second compound 3.16 µM, first compound 0.316 µM
[28] = second compound 3.16 µM, first compound 1 µM
[29] = second compound 3.16 µM, first compound 3.16 µM
[30] = second compound 3.16 µM, first compound 10 µM
[31] = second compound 10 µM, first compound 0.0316 µM
[32] = second compound 10 µM, first compound 0.1 µM
[33] = second compound 10 µM, first compound 0.316 µM
[34] = second compound 10 µM, first compound 1 µM
[35] = second compound 10 µM, first compound 3.16 µM
[36] = second compound 10 µM, first compound 10 µM
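Also: spheroids exposed to the agents for seven days before readout.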
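For viability, T/C in this document: percent viability relative to DMSO vehicle control wells taken as 100%.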

CCCS(=O)(=O)Nc1ccc(F)c(C(=O)c2c[nH]c3ncc(-c4ccc(Cl)cc4)cc23)c1F + Cc1cnc(CNC(=O)c2c(=O)c3ccc(N4CCCN(C)CC4)nc3n3c2sc2ccccc23)cn1
6500 nM: IC50 (second compound 0.0316 µM)
< 31.6 nM: IC50 (second compound 0.1 µM) | IC50 (second compound 0.316 µM) | IC50 (second compound 1 µM) | IC50 (second compound 3.16 µM) | IC50 (second compound 10 µM)
inactive: viability, T/C [1] 117% | viability, T/C [2] 109% | viability, T/C [3] 111% | viability, T/C [4] 99.9% | viability, T/C [5] 89.8% | viability, T/C [6] 27.1% | viability, T/C [7] 34.8% | viability, T/C [8] 34.5% | viability, T/C [9] 32% | viability, T/C [10] 26.7% | viability, T/C [11] 25.5% | viability, T/C [12] 16.1% | viability, T/C [13] 11.4% | viability, T/C [14] 10.7%
active: viability, T/C [15] 8.91% | viability, T/C [16] 8.64% | viability, T/C [17] 9.45% | viability, T/C [18] 8.17% | viability, T/C [19] 6.02% | viability, T/C [20] 7.02% | viability, T/C [21] 5.64% | viability, T/C [22] 4.34% | viability, T/C [23] 4.77% | viability, T/C [24] 3.64% | viability, T/C [25] 4.08% | viability, T/C [26] 4.51% | viability, T/C [27] 4.86% | viability, T/C [28] 3.92% | viability, T/C [29] 3.36% | viability, T/C [30] 1.47% | viability, T/C [31] 0.08% | viability, T/C [32] 0.11% | viability, T/C [33] 0.13% | viability, T/C [34] 0.26% | viability, T/C [35] 0.86% | viability, T/C [36] 0.14%

COc1ccc([C@@H](O)c2cc(-c3ncnc4cc(N5CCOCC5)ccc34)c(F)cc2Cl)nn1 + Cc1cnc(CNC(=O)c2c(=O)c3ccc(N4CCCN(C)CC4)nc3n3c2sc2ccccc23)cn1
826 nM: IC50 (second compound 0.0316 µM)
active: viability, T/C [19] 7.16% | viability, T/C [20] 7.76% | viability, T/C [21] 6.22% | viability, T/C [22] 5.28% | viability, T/C [23] 7.22% | viability, T/C [24] 6.81% | viability, T/C [25] 5.73% | viability, T/C [26] 5.42% | viability, T/C [27] 4.82% | viability, T/C [28] 4.3% | viability, T/C [29] 6.69% | viability, T/C [30] 6.78% | viability, T/C [31] 0.11% | viability, T/C [32] 0.13% | viability, T/C [33] 0.3% | viability, T/C [34] 0.15% | viability, T/C [35] 0.42% | viability, T/C [36] 0.15%
< 31.6 nM: IC50 (second compound 0.1 µM) | IC50 (second compound 0.316 µM) | IC50 (second compound 1 µM) | IC50 (second compound 3.16 µM) | IC50 (second compound 10 µM)
inactive: viability, T/C [1] 119% | viability, T/C [2] 109% | viability, T/C [3] 107% | viability, T/C [4] 38.6% | viability, T/C [5] 36% | viability, T/C [6] 26% | viability, T/C [7] 47.7% | viability, T/C [8] 37.2% | viability, T/C [9] 21.7% | viability, T/C [10] 11.2% | viability, T/C [11] 12.2% | viability, T/C [12] 13.2% | viability, T/C [13] 14.1% | viability, T/C [14] 15% | viability, T/C [15] 10.7% | viability, T/C [16] 9.67% | viability, T/C [17] 12.2% | viability, T/C [18] 10.4%
